Assay results from patent US9359308B2, “Pyrazine kinase inhibitors” (Portola Pharmaceuticals, Inc., priority 2011, dated 2016).

The compounds below were run against T1, full length active recombinant SYK enzyme (Homo sapiens, UniProt P43405) (assay: Inhibition of Syk tyrosine phosphorylation activity (LANCE TR-FRET kinase assay)). Details: activity in the Syk assays, class symbols.
T1 construct: full length active recombinant SYK enzyme (Millipore, Calif.); purchased Millipore
Assay type: biochemical
Method in brief: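 1 nM full-length active recombinant SYK phosphorylated 550 nM biotin-DEEDYESP-OH with 100 μM ATP in 50 mM Tris pH 7.5, 5 mM MgCl2, 1 mM DTT and 3% DMSO for 1 h at room temperature. After EDTA quench, Eu-anti-phosphotyrosine/SA-APC TR-FRET was read after 1 h. IC50s came from non-linear regression.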

Q: How did the IC50 turn out when `NC(=O)c1ncc(N[C@H](Cc2cccs2)C(N)=O)nc1Nc1cnc2cccnc2c1` [Example 409, (R)-3-(1,5-naphthyridin-3-ylamino)-5-(1-amino-1-oxo-3-(thiophen-2-yl)propan-2-ylamino)pyrazine-2-carboxamide] was run?
A: 1 to 10 nM

Q: How did the IC50 turn out when `COC[C@@H](Nc1cnc(C(N)=O)c(Nc2cnc3cccnc3c2)n1)C(N)=O` [Example 410, (R)-3-(1,5-naphthyridin-3-ylamino)-5-(1-amino-3-methoxy-1-oxopropan-2-ylamino)pyrazine-2-carboxamide] was run?
A: 10 to 100 nM

Q: `NC(=O)c1ncc(N[C@@H](C(N)=O)c2ccccc2)nc1Nc1cnc2cccnc2c1` [Example 411, (R)-3-(1,5-naphthyridin-3-ylamino)-5-(2-amino-2-oxo-1-phenylethylamino)pyrazine-2-carboxamide] was tested. Which IC50 did it give?
A: 10 to 100 nM

Q: `NC(=O)c1ncc(N[C@@H]2CCCC[C@@H]2N)nc1Nc1snc2ncccc12` [Example 412, 5-((1R,2S)-2-aminocyclohexylamino)-3-(isothiazolo[3,4-b]pyridin-3-ylamino)pyrazine-2-carboxamide] was tested. Which IC50 did it give?
A: < 1 nM

Q: For `NC(=O)c1ncc(N[C@@H]2CCCC[C@@H]2N)nc1Nc1cnn2ccccc12` [Example 413, 5-(((1R,2S)-2-aminocyclohexyl)amino)-3-(pyrazolo[1,5-a]pyridin-3-ylamino)pyrazine-2-carboxamide], which IC50 is on record?
A: < 1 nM

Q: For `NC(=O)c1ncc(N[C@@H]2CCCC[C@@H]2N)nc1N[C@H]1COc2ccccc2C1` [Example 415, 5-(((1R,2S)-2-aminocyclohexyl)amino)-3-((R)-chroman-3-ylamino)pyrazine-2-carboxamide], which IC50 is on record?
A: 10 to 100 nM

Q: Which IC50 does the source give for `NC(=O)c1ncc(N[C@@H]2CCCC[C@@H]2N)nc1N[C@@H]1COc2ccccc2C1` [Example 416, 5-(((1R,2S)-2-aminocyclohexyl)amino)-3-((S)-chroman-3-ylamino)pyrazine-2-carboxamide] here?
A: 100 to 1000 nM

Q: How did the IC50 turn out when `NC(=O)c1ncc(N[C@@H]2CCCC[C@@H]2N)nc1Nc1cccnc1` [Example 417, 5-(((1R,2S)-2-aminocyclohexyl)amino)-3-(pyridin-3-ylamino)pyrazine-2-carboxamide] was run?
A: < 1 nM

Q: For `NC(=O)c1ncc(N[C@@H]2CCCC[C@@H]2N)nc1Nc1cncc(F)c1` [Example 418, 5-(((1R,2S)-2-aminocyclohexyl)amino)-3-((5-fluoropyridin-3-yl)amino)pyrazine-2-carboxamide], which IC50 is on record?
A: 1 to 10 nM

Q: Which IC50 does the source give for `NC(=O)c1ncc(N[C@@H]2CCCC[C@@H]2N)nc1Nc1cnc2cccnc2c1` [Example 419, 3-((1,5-naphthyridin-3-yl)amino)-5-(((1R,2S)-2-aminocyclohexyl)amino)pyrazine-2-carboxamide] here?
A: 1 to 10 nM

Q: How did the IC50 turn out when `NC(=O)c1ncc(N[C@@H]2CCCC[C@@H]2N)nc1Nc1cnc2ncccc2c1` [Example 420, 3-((1,8-naphthyridin-3-yl)amino)-5-(((1R,2S)-2-aminocyclohexyl)amino)pyrazine-2-carboxamide] was run?
A: 1 to 10 nM

Q: `CC[C@@H](Nc1cnc(C(N)=O)c(Nc2cnn3ccccc23)n1)C(N)=O` [Example 421, (R)-5-((1-amino-1-oxobutan-2-yl)amino)-3-(pyrazolo[1,5-a]pyridin-3-ylamino)pyrazine-2-carboxamide] was tested. Which IC50 did it give?
A: 1 to 10 nM

Q: With `NC(=O)c1ncc(N[C@@H]2CCCC[C@@H]2N)nc1Nc1cncc(-c2ncccn2)c1` [Example 422] as the compound, how does the IC50 read?
A: 1 to 10 nM

Q: With `NC(=O)c1ncc(N[C@@H]2CCCC[C@@H]2N)nc1Nc1cc(-c2ncccn2)cc(-c2ncccn2)c1` [Example 423, 5-(((1R,2S)-2-aminocyclohexyl)amino)-3-((3,5-di(pyrimidin-2-yl)phenyl)amino)pyrazine-2-carboxamide] as the compound, how does the IC50 read?
A: 1 to 10 nM

Q: With `NC(=O)c1ncc(N[C@@H]2CCCC[C@@H]2N)nc1Nc1cc(-n2nccn2)cc(-n2nccn2)c1` [Example 424, 5-(((1R,2S)-2-aminocyclohexyl)amino)-3-((3,5-di(2H-1,2,3-triazol-2-yl)phenyl)amino)pyrazine-2-carboxamide] as the compound, how does the IC50 read?
A: 1 to 10 nM

Q: For `NC(=O)c1ncc(N[C@@H]2CCCC[C@@H]2N)nc1Nc1ccc2nccn2c1` [Example 425, 5-(((1R,2S)-2-aminocyclohexyl)amino)-3-(imidazo[1,2-a]pyridin-6-ylamino)pyrazine-2-carboxamide], which IC50 is on record?
A: 1 to 10 nM

Q: For `CC[C@@H](Nc1cnc(C(N)=O)c(Nc2ccc3nccn3c2)n1)C(N)=O` [Example 426, (R)-5-((1-amino-1-oxobutan-2-yl)amino)-3-(imidazo[1,2-a]pyridin-6-ylamino)pyrazine-2-carboxamide], which IC50 is on record?
A: 1 to 10 nM

Q: For `NC(=O)c1ncc(N[C@@H]2CCCC[C@@H]2N)nc1Nc1ccn2ccnc2c1` [Example 427, 5-(((1R,2S)-2-aminocyclohexyl)amino)-3-(imidazo[1,2-a]pyridin-7-ylamino)pyrazine-2-carboxamide], which IC50 is on record?
A: 1 to 10 nM

Q: For `NC(=O)c1ncc(N[C@@H]2CCCC[C@@H]2N)nc1Nc1csc2ncccc12` [Example 428, 5-(((1R,2S)-2-aminocyclohexyl)amino)-3-(thieno[2,3-b]pyridin-3-ylamino)pyrazine-2-carboxamide], which IC50 is on record?
A: < 1 nM

Q: `NC(=O)c1ncc(N[C@@H]2CCCC[C@@H]2N)nc1Nc1cc(-n2ccnn2)cc(-n2nccn2)c1` [Example 429, 3-((3-(1H-1,2,3-triazol-1-yl)-5-(2H-1,2,3-triazol-2-yl)phenyl)amino)-5-(((1R,2S)-2-aminocyclohexyl)amino)pyrazine-2-carboxamide] was tested. Which IC50 did it give?
A: 1 to 10 nM

Q: With `NC(=O)c1ncc(N[C@@H]2CCCC[C@@H]2N)nc1Nc1cnsc1` [Example 430, 5-(((1R,2S)-2-aminocyclohexyl)amino)-3-(isothiazol-4-ylamino)pyrazine-2-carboxamide] as the compound, how does the IC50 read?
A: 10 to 100 nM

Q: With `NC(=O)c1ncc(N[C@@H]2CCCC[C@@H]2N)nc1Nc1cc(N2CCOCC2)cc(-n2cccn2)c1` [Example 431, 5-(((1R,2S)-2-aminocyclohexyl)amino)-3-((3-morpholino-5-(1H-pyrazol-1-yl)phenyl)amino)pyrazine-2-carboxamide] as the compound, how does the IC50 read?
A: 1 to 10 nM

Q: With `NC(=O)c1ncc(N[C@@H]2CCCC[C@@H]2N)nc1Nc1cc(-n2ccnn2)cc(-n2ccnn2)c1` [Example 432, 5-(((1R,2S)-2-aminocyclohexyl)amino)-3-((3,5-di(1H-1,2,3-triazol-1-yl)phenyl)amino)pyrazine-2-carboxamide] as the compound, how does the IC50 read?
A: 1 to 10 nM

Q: `NC(=O)c1ncc(N[C@@H]2CCCC[C@@H]2N)nc1Nc1cnc2ccncc2c1` [Example 433, 3-((1,6-naphthyridin-3-yl)amino)-5-(((1R,2S)-2-aminocyclohexyl)amino)pyrazine-2-carboxamide] was tested. Which IC50 did it give?
A: 1 to 10 nM

Q: How did the IC50 turn out when `NC(=O)c1ncc(N[C@@H]2CCCC[C@@H]2N)nc1Nc1cnc2scnc2c1` [Example 434, 5-(((1R,2S)-2-aminocyclohexyl)amino)-3-(thiazolo[5,4-b]pyridin-6-ylamino)pyrazine-2-carboxamide] was run?
A: 1 to 10 nM

Q: `NC(=O)c1ncc(N[C@@H]2CCCC[C@@H]2N)nc1Nc1ccc2cccnc2c1` [Example 435, 5-(((1R,2S)-2-aminocyclohexyl)amino)-3-(quinolin-7-ylamino)pyrazine-2-carboxamide] was tested. Which IC50 did it give?
A: 1 to 10 nM

Q: With `NC(=O)c1ncc(N[C@@H]2CCCC[C@@H]2N)nc1Nc1cccc2ncccc12` [Example 436, 5-(((1R,2S)-2-aminocyclohexyl)amino)-3-(quinolin-5-ylamino)pyrazine-2-carboxamide] as the compound, how does the IC50 read?
A: < 1 nM

Q: How did the IC50 turn out when `NC(=O)c1ncc(N[C@@H]2CCCC[C@@H]2N)nc1Nc1ccnc2ncccc12` [Example 437, 3-((1,8-naphthyridin-4-yl)amino)-5-(((1R,2S)-2-aminocyclohexyl)amino)pyrazine-2-carboxamide] was run?
A: 1 to 10 nM

Q: For `CCC(=O)N1CCC(c2ccc(Nc3nc(N[C@@H]4CCCC[C@@H]4N)cnc3C(N)=O)cc2)CC1` [Example 438, 5-(((1R,2S)-2-aminocyclohexyl)amino)-3-((4-(1-propionylpiperidin-4-yl)phenyl)amino)pyrazine-2-carboxamide], which IC50 is on record?
A: 1 to 10 nM

Q: With `NC(=O)c1ncc(N[C@@H]2CCCC[C@@H]2N)nc1Nc1ccc(N2CCOCC2)c(F)c1` [Example 439, 5-(((1R,2S)-2-aminocyclohexyl)amino)-3-((3-fluoro-4-morpholinophenyl)amino)pyrazine-2-carboxamide] as the compound, how does the IC50 read?
A: 1 to 10 nM

Q: How did the IC50 turn out when `NC(=O)c1ncc(N[C@@H]2CCCC[C@@H]2N)nc1Nc1ccc(-n2ccccc2=O)cc1` [Example 440, 5-(((1R,2S)-2-aminocyclohexyl)amino)-3-((4-(2-oxopyridin-1(2H)-yl)phenyl)amino)pyrazine-2-carboxamide] was run?
A: 10 to 100 nM

Q: `NC(=O)c1ncc(N[C@@H]2CCCC[C@@H]2N)nc1Nc1ccc(N2CCCCC2=O)cc1` [Example 441, 5-(((1R,2S)-2-aminocyclohexyl)amino)-3-((4-(2-oxopiperidin-1-yl)phenyl)amino)pyrazine-2-carboxamide] was tested. Which IC50 did it give?
A: 10 to 100 nM

Q: `NC(=O)c1ncc(N[C@@H]2CCCC[C@@H]2N)nc1Nc1ccc(N2CCOCC2=O)cc1` [Example 442, 5-(((1R,2S)-2-aminocyclohexyl)amino)-3-((4-(3-oxomorpholino)phenyl)amino)pyrazine-2-carboxamide] was tested. Which IC50 did it give?
A: 10 to 100 nM

Q: `NC(=O)c1ncc(N[C@@H]2CCCC[C@@H]2N)nc1Nc1ccc(N2CCOCC2=O)c(F)c1` [Example 443, 5-(((1R,2S)-2-aminocyclohexyl)amino)-3-((3-fluoro-4-(3-oxomorpholino)phenyl)amino)pyrazine-2-carboxamide] was tested. Which IC50 did it give?
A: 10 to 100 nM

Q: Which IC50 does the source give for `NC(=O)c1ncc(N[C@@H]2CCCC[C@@H]2N)nc1Nc1cccc(-c2ncco2)c1` [Example 444, 5-(((1R,2S)-2-aminocyclohexyl)amino)-3-((3-(oxazol-2-yl)phenyl)amino)pyrazine-2-carboxamide] here?
A: < 1 nM
